Assay results reported in publication PMC6514012, “Targeting the neuronal calcium sensor DREAM with small-molecules for Huntington’s disease treatment” (Scientific Reports, 2019).
Changes are numbered by the printed parent chain. One block for each molecule: values may come before it.

How the values were obtained:
[1] = biological target: T1, His-DREAM (71–256); rDREAM (Homo sapiens, UniProt Q9Y2W7); assay: SPR, immobilized protein; conditions: CM4 chip; binding depends on Ca2+ and Mg2+
T1 construct: gene KCNIP3; residues 71-256, His-tagged, recombinant, immobilized on CM4 sensor chip; dimer and monomer in Ca2+
T1 sequence (Q9Y2W7 71-256): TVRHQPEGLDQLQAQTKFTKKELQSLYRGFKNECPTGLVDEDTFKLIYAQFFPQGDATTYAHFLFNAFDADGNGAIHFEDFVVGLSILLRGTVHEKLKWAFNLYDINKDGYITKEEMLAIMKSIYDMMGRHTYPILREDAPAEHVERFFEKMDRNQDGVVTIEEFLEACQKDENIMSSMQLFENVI

GST-DREAM [2] = biological target: T2, GST-DREAM (Homo sapiens, UniProt Q9Y2W7, Y130A); assay: SPR, immobilized protein; assay type: binding; conditions: CM5 chip; compared with wild type
T2 construct: gene KCNIP3
T2 sequence (Q9Y2W7 1-256 Y130A): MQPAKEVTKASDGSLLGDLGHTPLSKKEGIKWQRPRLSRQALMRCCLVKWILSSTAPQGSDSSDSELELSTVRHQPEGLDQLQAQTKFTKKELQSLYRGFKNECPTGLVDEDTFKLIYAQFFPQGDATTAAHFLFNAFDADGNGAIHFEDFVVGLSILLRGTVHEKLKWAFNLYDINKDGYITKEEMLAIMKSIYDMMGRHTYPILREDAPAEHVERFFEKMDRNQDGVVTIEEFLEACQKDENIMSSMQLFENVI

GST-DREAM [3] = biological target: T3, GST-DREAM (Homo sapiens, UniProt Q9Y2W7, Y118A); assay: SPR, immobilized protein; assay type: binding; conditions: CM5 chip; compared with wild type
T3 construct: gene KCNIP3
T3 sequence (Q9Y2W7 1-256 Y118A): T2 sequence (Q9Y2W7 1-256 Y130A) with Y118A, A130Y

[4] = biological target: the molecule itself; assay: native gel or EMSA; 10% blue native (nondenaturing, nonreducing) polyacrylamide gel; His-DREAM 71-256 (50 ng, 100 nM) with 5 mM CaCl2, incubated 10 min at RT with 10, 30, 100 and 300 nM IQM-PC330; immunodetection with anti-DREAM antibody; dimer and monomer bands

- KD [1]: 2.8 ± 0.3 · 10^−5 M
Molecule: CCCCc1ccc(-c2ccc(C(=O)O)c(NC(=O)Cc3ccc(Cl)c(Cl)c3)c2)cc1 [compound 19, 2-[2-(3,4-Dichlorophenyl)acetylamino]-4-(4′-n-butylphenyl)benzoic acid]
- SPR, immobilized protein (GST-DREAM [2]): Tyr118Ala or Tyr130Ala showed a substantial decrease in the binding of the two ligands
- SPR, immobilized protein (GST-DREAM [3]): Tyr118Ala or Tyr130Ala showed a substantial decrease in the binding of the two ligands

- KD [1]: 3.9 ± 0.4 · 10^−5 M
Molecule: CCCCc1ccc(-c2ccc(NC(=O)Cc3ccc(Cl)c(Cl)c3)c(C(=O)O)c2)cc1 [compound 36, 2-[2-(3,4-Dichlorophenyl)acetylamino]-5-(4’-n-butylphenyl)benzoic acid]
- SPR, immobilized protein (GST-DREAM [2]): Tyr118Ala or Tyr130Ala showed a substantial decrease in the binding of the two ligands
- SPR, immobilized protein (GST-DREAM [3]): Tyr118Ala or Tyr130Ala showed a substantial decrease in the binding of the two ligands

B1: Recombinant His-tagged soluble DREAM protein (aa 71–256) (domain or fragment, UniProt Q9Y2W7 71-256, looked up)
chain: T1 sequence (Q9Y2W7 71-256)
notes: DREAM (downstream regulatory element antagonist modulator; KChIP3, calsenilin), residues 71-256; Seen as dimer and monomer on blue native gels with 5 mM CaCl2; also called rDREAM; recombinant DREAM (amino acids 71–256); source: recombinant protein
- stoichiometry N [4]: 2
